Marks after values point to notes of the source that are not given here.
Test system: rats made hyperlipidaemic by diet
Experiment: Effects on serum lipids in vivo in rats made hyperlipidaemic by diet
Set-up: species or system Male Sprague-Dawley rats
Conditions: compound fed at 0.1% of the powdered diet (approximately 100 mg/kg/day), 7 days, (-) lower, (+) higher than control; for Percentage difference from Control Values in High Density lipoprotein (HDL) cholesterol: HDL fraction by heparin-manganous chloride precipitation, four pooled samples per group; for Percentage difference from Control Values in Total Serum Cholesterol / Percentage difference from Control Values in Total Serum Triglyceride: semi-synthetic diet rich in sucrose and cholesterol
Method: The compounds of the Examples above were tested for their effects on serum lipids in vivo using rats made hyperlipidaemic by diet*.
Male Sprague-Dawley rats, 80-100 g , were randomised into groups of 8 after 5 - 7 days of feeding on the diet. The compounds were fed to the rats at a concentration of * 0.1% of the powdered diet (ie approximately 100 mg/kg/ day), unless otherwise stated. The control groups were fed only the diet. At the end of the experiment, ie after 7 days, the rats were killed and their individual total serum cholesterol and triglyceride measured in mg/100 ml using a Technicon Autoanalyser. The high density lipoprotein (HDL)-cholesterol fraction, which was obtained from the serum by precipitation with heparin- manganous chloride, was measured on four 'pooled' samples from each group.
^* A semi-synthetic diet rich in sucrose and cholesterol.

SMILES: O=C(O)C(Cc1ccc(Cl)cc1)NCc1ccc(Cl)s1 (racemic) [Example 1, N-[2-(5-chloro)thienyl]methyl-DL-(4-chlorophenyl) alanine]
- Percentage difference from Control Values in High Density lipoprotein (HDL) cholesterol: +31* %
- Percentage difference from Control Values in Total Serum Cholesterol: +16%
- Percentage difference from Control Values in Total Serum Triglyceride: -42* %

SMILES: O=C(O)C(Cc1ccc(Cl)cc1)NCc1ccco1 (racemic) [Example 2, N-(2-Furyl)methyl-DL-(4-chlorophenyl)-alanine]
- Percentage difference from Control Values in High Density lipoprotein (HDL) cholesterol: +84* %
- Percentage difference from Control Values in Total Serum Cholesterol: +61* %
- Percentage difference from Control Values in Total Serum Triglyceride: -47* %

SMILES: O=C(O)C(Cc1ccc(Cl)cc1)NCc1ccccn1 (racemic) [Example 4, N-(2-pyridyl)methyl-DL-(4-chlorophenyl) alanine]
- Percentage difference from Control Values in High Density lipoprotein (HDL) cholesterol: +44* %
- Percentage difference from Control Values in Total Serum Cholesterol: +78* %
- Percentage difference from Control Values in Total Serum Triglyceride: -30* %

SMILES: O=C(O)[C@H](Cc1ccccc1)NCc1cccc2ccccc12 [Example 3, N-(1-Naphthyl)methyl-L-phenylalanine]
- Percentage difference from Control Values in High Density lipoprotein (HDL) cholesterol: +41* %
- Percentage difference from Control Values in Total Serum Cholesterol: +62* %
- Percentage difference from Control Values in Total Serum Triglyceride: -63* %

SMILES: O=C(O)[C@H](Cc1ccccc1)NCc1ccc2ccccc2c1 [Example 5, N-(2-Naphthyl)methyl-L-phenylalanine]
- Percentage difference from Control Values in High Density lipoprotein (HDL) cholesterol: +30* %
- Percentage difference from Control Values in Total Serum Cholesterol: +17* %
- Percentage difference from Control Values in Total Serum Triglyceride: -57* %

SMILES: O=C(O)[C@H](Cc1ccccc1)NCc1ccco1 [Example 6, N-(2-Furyl)methyl-L-phenylalanine]
- Percentage difference from Control Values in High Density lipoprotein (HDL) cholesterol: +26* %
- Percentage difference from Control Values in Total Serum Triglyceride: +39%

From patent publication EP0067641A2, “Amino acids” (BEECHAM GROUP PLC, priority 1981, dated 1982)
